Measurements taken from patent US20240382481A1 (priority 2021, published 2024).

Assays:
Test in all cases: biochemical
[1] = target: SRPK2 (Homo sapiens, UniProt P78362)
[2] = target: SRPK1 (Homo sapiens, UniProt Q96SB4)
[3] = target: SRPK3/MSSK1/STK23 (Homo sapiens, UniProt Q9UPE1)
Chain of SRPK3/MSSK1/STK23 (Q9UPE1 whole entry): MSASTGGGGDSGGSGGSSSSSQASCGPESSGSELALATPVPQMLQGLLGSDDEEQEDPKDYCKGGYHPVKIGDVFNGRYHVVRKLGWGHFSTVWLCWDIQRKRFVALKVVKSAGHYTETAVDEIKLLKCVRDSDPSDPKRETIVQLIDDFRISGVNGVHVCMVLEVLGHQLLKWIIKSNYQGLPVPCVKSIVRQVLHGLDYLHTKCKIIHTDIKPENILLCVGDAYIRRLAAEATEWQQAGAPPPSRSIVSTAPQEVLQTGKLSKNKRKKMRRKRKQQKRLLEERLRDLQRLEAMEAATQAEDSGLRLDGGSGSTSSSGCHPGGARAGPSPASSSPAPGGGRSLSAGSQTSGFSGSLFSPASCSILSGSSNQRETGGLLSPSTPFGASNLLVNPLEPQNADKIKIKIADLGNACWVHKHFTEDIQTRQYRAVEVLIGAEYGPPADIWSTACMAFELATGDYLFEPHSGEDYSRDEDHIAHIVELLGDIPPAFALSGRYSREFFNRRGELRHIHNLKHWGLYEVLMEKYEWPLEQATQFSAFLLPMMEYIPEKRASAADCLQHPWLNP

Chain of SRPK2 (P78362 whole entry, species assumed): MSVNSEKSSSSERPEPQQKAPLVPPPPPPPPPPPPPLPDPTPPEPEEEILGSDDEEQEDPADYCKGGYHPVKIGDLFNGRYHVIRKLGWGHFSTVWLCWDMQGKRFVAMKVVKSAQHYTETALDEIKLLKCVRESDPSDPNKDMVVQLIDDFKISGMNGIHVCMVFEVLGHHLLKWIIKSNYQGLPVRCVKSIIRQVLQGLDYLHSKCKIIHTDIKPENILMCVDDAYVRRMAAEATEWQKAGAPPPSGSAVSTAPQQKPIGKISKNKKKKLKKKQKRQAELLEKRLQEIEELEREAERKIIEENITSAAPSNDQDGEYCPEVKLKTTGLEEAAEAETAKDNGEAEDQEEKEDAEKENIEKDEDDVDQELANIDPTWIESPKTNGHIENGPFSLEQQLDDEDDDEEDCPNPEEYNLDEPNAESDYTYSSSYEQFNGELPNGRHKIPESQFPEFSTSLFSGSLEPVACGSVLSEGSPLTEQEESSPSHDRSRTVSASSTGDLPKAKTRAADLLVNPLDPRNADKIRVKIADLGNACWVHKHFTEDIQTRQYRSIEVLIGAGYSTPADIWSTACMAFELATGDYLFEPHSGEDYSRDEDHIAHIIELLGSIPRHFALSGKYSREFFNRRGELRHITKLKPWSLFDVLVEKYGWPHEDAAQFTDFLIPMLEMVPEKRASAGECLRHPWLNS
Chain of SRPK1 (Q96SB4 whole entry, species assumed): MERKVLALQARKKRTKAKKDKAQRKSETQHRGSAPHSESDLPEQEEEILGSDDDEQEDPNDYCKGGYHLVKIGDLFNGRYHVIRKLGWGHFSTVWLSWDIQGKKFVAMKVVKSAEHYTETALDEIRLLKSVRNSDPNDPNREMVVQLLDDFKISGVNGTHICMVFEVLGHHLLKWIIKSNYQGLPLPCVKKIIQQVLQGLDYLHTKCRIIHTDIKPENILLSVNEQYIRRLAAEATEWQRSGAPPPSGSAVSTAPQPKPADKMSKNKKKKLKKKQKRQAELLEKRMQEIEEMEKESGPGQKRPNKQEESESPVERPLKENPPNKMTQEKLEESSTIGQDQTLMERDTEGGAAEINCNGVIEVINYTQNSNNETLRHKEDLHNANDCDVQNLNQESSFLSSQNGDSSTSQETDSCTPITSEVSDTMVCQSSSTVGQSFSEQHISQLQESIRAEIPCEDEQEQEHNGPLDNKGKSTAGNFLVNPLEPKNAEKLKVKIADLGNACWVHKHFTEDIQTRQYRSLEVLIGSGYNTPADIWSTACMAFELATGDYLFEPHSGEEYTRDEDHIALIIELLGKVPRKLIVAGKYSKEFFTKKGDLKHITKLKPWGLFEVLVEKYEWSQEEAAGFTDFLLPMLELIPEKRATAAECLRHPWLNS

SMILES | IC50 [1] [nM] | IC50 [2] [nM] | IC50 [3] [nM]
CCN(c1ncccc1CNc1ccnc(-c2nc3cc(Cl)ccc3[nH]2)n1)S(C)(=O)=O [Compound B8] | 50 to 500 | < 50 | 
CCn1c(-c2nccc(NCc3cccnc3N(C)S(C)(=O)=O)n2)nc2cc(Cl)ccc21 [Compound B15] | 500 to 2500 | < 50 | 
CCN(c1ncccc1Cn1ccc2cnc(-c3nc4cc(Cl)ccc4[nH]3)cc21)S(C)(=O)=O [Compound B16] | 50 to 500 | 50 to 500 | 50 to 500
CN(c1ncccc1CNc1ccnc(-c2nc3cc(C(C)(C)C)c(F)cc3[nH]2)n1)S(C)(=O)=O [Compound B18] | 500 to 2500 | 50 to 500 | < 50
Cc1cc2cnc(-c3nc4cc(Cl)ccc4n3C)nc2n1Cc1cccnc1N(C)S(C)(=O)=O [Compound B21] | 50 to 500 | < 50 | 50 to 500
CN(c1ncncc1CNc1ccnc(-c2nc3cc(Cl)ccc3[nH]2)n1)S(C)(=O)=O [Compound B4] | 500 to 2500 | 50 to 500 | 
CN(c1ccccc1CNc1cccc(-c2nc3cc(Cl)ccc3[nH]2)n1)S(C)(=O)=O [Compound B3] | 50 to 500 | < 50 | 
CN(c1ncccc1CNc1ccnc(-c2nc3cc(Cl)c(Cl)cc3n2C)n1)S(C)(=O)=O [Compound B19] | 50 to 500 |  | 
CN(c1ncccc1Cn1c(=O)ccc2cnc(-c3nc4cc(Cl)ccc4[nH]3)cc21)S(C)(=O)=O [Compound B20] | 50 to 500 | 50 to 500 | 500 to 2500
Cc1cc(Cl)cc2nc(-c3nccc(NCc4cccnc4N(C)S(C)(=O)=O)n3)[nH]c12 [Compound B9] | 50 to 500 | < 50 | < 50
Cc1cc2cnc(-c3nc4cc(Cl)c(Cl)cc4n3C)nc2n1Cc1cccnc1N(C)S(C)(=O)=O [Compound B22] | 50 to 500 | < 50 | 50 to 500
CN(c1ncccc1CNc1cccc(-c2nc3cc(Cl)ccc3n2C)n1)S(C)(=O)=O [Compound B6] | 50 to 500 | 50 to 500 | < 50
